Reference: ChEMBL document CHEMBL1140165, “Rotationally constrained 2,4-diamino-5,6-disubstituted pyrimidines: a new class of histamine H4 receptor antagonists with improved druglikeness and in vivo efficacy in pain and inflammation models” (J Med Chem, 2008)

What was measured:
Histamine H4 receptor [1] = molecular target: T1, Histamine H4 receptor (Rattus norvegicus, UniProt Q91ZY1); test: Antagonist activity at rat histamine H4 receptor expressed in HEK293 cells assessed as inhibition of histamine-induced intracellular calcium elevation by FLIPR assay; format: functional, cell-based
T1 sequence (Q91ZY1 whole entry): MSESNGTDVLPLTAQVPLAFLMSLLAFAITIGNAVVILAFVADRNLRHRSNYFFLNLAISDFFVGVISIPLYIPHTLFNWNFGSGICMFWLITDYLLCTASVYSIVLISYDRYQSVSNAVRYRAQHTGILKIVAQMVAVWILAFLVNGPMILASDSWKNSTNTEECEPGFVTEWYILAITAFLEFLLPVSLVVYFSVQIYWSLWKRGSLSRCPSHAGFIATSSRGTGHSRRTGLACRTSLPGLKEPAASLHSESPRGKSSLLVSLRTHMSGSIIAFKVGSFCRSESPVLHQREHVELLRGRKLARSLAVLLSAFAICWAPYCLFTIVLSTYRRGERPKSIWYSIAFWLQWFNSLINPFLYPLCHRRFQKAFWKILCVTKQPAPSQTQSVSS

Histamine H4 receptor [2] = molecular target: T2, Histamine H4 receptor (Mus musculus, UniProt Q91ZY2); test: Antagonist activity at mouse histamine H4 receptor expressed in HEK293 cells assessed as inhibition of histamine-induced intracellular calcium elevation by FLIPR assay; format: functional, cell-based
T2 sequence (Q91ZY2 whole entry): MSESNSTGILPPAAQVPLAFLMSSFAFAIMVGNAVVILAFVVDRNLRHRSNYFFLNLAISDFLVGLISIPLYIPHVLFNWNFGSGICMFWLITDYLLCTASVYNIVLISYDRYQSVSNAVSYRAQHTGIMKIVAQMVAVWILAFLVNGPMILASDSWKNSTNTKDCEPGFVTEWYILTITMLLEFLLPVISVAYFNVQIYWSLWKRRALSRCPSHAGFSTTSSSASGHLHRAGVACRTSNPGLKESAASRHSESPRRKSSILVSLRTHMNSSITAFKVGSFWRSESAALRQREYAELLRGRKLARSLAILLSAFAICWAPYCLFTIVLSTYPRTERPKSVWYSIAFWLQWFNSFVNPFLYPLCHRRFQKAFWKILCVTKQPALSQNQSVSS

Histamine H4 receptor [3] = molecular target: T3, Histamine H4 receptor (Homo sapiens, UniProt Q9H3N8); test: Displacement of [3H]histamine from human histamine H4 receptor expressed in HEK293 cells; format: cell-based; details: read-out: pKi (converted)
Histamine H4 receptor [4] = molecular target: T1, Histamine H4 receptor; test: Displacement of [3H]histamine from rat histamine H4 receptor expressed in HEK293 cells; format: cell-based
Liver microsomes [5] = test: Metabolic stability in rat liver microsomes; format: ADME, Microsome
Liver microsomes [6] = test: Metabolic stability in human liver microsomes; format: ADME, Microsome
[7] = Metabolic stability in mouse liver microsomes; format: ADME, Microsome
[8] = Protein binding in rat; format: ADME, organism-based; details: in vivo, read-out: PB (converted)
[9] = Protein binding in human; format: ADME, organism-based; details: in vivo, read-out: PB (converted)
Cytochrome P450 3A4 = Cytochrome P450 3A4 (Homo sapiens, UniProt P08684); test: Inhibition of CYP3A4 upto 10 uM; format: ADME
Chain of Cytochrome P450 3A4 (P08684 whole entry): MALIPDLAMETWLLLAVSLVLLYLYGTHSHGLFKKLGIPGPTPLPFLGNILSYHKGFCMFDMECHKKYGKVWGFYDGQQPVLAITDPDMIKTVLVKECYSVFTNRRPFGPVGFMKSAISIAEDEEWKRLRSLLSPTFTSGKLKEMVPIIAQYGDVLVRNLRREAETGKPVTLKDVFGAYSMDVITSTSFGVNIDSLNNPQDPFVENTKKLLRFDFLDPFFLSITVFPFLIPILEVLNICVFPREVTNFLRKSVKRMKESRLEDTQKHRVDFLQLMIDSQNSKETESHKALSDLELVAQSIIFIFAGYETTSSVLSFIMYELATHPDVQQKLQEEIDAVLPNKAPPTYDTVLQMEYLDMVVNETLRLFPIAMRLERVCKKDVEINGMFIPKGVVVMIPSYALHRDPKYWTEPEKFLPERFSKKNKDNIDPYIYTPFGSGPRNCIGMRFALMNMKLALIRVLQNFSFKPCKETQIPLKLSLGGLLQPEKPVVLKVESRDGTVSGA

Cytochrome P450 2D6 = Cytochrome P450 2D6 (Homo sapiens, UniProt P10635); test: Inhibition of CYP2D6 upto 10 uM; format: ADME
Chain of Cytochrome P450 2D6 (P10635 whole entry): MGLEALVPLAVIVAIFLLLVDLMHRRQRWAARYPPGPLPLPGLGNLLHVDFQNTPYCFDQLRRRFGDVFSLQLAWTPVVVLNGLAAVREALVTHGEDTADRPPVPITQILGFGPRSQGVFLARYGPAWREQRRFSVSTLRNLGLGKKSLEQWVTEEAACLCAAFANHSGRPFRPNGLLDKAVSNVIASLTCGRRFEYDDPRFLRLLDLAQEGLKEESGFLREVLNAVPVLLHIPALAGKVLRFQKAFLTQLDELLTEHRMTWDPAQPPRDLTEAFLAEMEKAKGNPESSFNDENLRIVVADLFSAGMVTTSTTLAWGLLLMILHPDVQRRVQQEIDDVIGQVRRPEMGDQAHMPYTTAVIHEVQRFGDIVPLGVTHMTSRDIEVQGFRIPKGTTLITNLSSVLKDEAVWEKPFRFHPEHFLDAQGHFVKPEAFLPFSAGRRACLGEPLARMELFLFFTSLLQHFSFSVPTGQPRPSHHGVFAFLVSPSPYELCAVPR

Cytochrome P450 2C9 = Cytochrome P450 2C9 (Homo sapiens, UniProt P11712); test: Inhibition of CYP2C9 upto 10 uM; format: ADME
Chain of Cytochrome P450 2C9 (P11712 whole entry): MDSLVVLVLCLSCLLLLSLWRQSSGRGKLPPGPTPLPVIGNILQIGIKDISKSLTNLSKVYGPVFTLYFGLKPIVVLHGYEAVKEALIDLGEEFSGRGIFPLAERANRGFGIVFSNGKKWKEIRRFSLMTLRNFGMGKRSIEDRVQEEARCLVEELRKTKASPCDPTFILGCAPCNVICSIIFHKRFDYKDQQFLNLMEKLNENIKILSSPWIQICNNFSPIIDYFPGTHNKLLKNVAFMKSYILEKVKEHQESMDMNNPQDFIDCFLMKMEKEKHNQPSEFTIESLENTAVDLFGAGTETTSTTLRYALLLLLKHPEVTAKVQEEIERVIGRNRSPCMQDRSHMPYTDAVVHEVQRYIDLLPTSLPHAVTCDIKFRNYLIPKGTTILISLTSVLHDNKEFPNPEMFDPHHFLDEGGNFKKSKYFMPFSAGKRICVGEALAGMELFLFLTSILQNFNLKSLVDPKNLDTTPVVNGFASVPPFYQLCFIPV

[10] = Cmax in mouse at 5 mg/kg, iv; format: ADME, organism-based; design: dose 5 mg/kg, route intravenous; details: in vivo
[11] = Tmax in mouse at 5 mg/kg, iv; format: ADME, organism-based; design: dose 5 mg/kg, route intravenous; details: in vivo
[12] = AUC (0 to t) in mouse at 5 mg/kg, iv; format: ADME, organism-based; design: dose 5 mg/kg, route intravenous; details: plasma
[13] = AUC (0 to infinity) in mouse at 5 mg/kg, iv; format: ADME, organism-based; design: time infinity, dose 5 mg/kg, route intravenous; details: plasma
Mus musculus = test: Plasma clearance in mouse at 5 mg/kg, iv; format: ADME, organism-based; design: dose 5 mg/kg, route intravenous; details: in vivo
[14] = Cmax in mouse at 20 mg/kg, sc; format: ADME, organism-based; design: dose 20 mg/kg, route subcutaneous; details: in vivo
[15] = Tmax in mouse at 20 mg/kg, sc; format: ADME, organism-based; design: dose 20 mg/kg, route subcutaneous; details: in vivo
[16] = Half life in mouse at 20 mg/kg, sc; format: ADME, organism-based; design: dose 20 mg/kg, route subcutaneous; details: in vivo
[17] = AUC (0 to t) in mouse at 20 mg/kg, sc; format: ADME, organism-based; design: dose 20 mg/kg, route subcutaneous; details: plasma
[18] = AUC (0 to infinity) in mouse at 20 mg/kg, sc; format: ADME, organism-based; design: time infinity, dose 20 mg/kg, route subcutaneous; details: plasma
[19] = Oral bioavailability in mouse at 20 mg/kg, sc; format: ADME, organism-based; details: in vivo, subcutaneous
[20] = Half life in mouse at 5 mg/kg, iv; format: ADME, organism-based; design: dose 5 mg/kg, route intravenous; details: in vivo
Histamine H4 receptor [21] = molecular target: T3, Histamine H4 receptor; details: HEK293

- EC50 (Histamine H4 receptor [1]): 30.9 nM
- EC50 (Histamine H4 receptor [2]): 17.8 nM
- Ki (Histamine H4 receptor [3]): 25.7 nM
- Ki (Histamine H4 receptor [4]): 3.98 nM
- Stability (Liver microsomes [5]): 61.4 pmol/min/mg
- Stability (Liver microsomes [6]): 26.6 pmol/min/mg
- Stability [7]: 31.6 pmol/min/mg
- fraction unbound [8]: 0.35
- fraction unbound [9]: 0.42
- Activity (Cytochrome P450 3A4): Not Active
- Activity (Cytochrome P450 2D6): Not Active
- Activity (Cytochrome P450 2C9): Not Active
- Cmax [10]: 1120 nM
- Tmax [11]: 0.5 h
- AUC(0-t) [12]: 3.03 µM·h
- AUC(0-inf) [13]: 3.04 µM·h
- Activity (Mus musculus): Not Active
- Cmax [14]: 2000 nM
- Tmax [15]: 2 h
- half-life [16]: 0.86 h
- AUC(0-t) [17]: 11.8 µM·h
- AUC(0-inf) [18]: 11.8 µM·h
- bioavailability [19]: 0%
- half-life [20]: 1.63 h
- pKb (Histamine H4 receptor [21]): 7.74
Compound: O=C(c1cc2cc(Cl)ccc2[nH]1)N1CCNCC1
